Literature values, collected in US20030237103A1, “Methods and compositions for pharmacological and toxicological evaluation of test agents” (priority 2002, published 2003).
Like-named read-outs stand apart in the source and are kept apart here.

System: Sprague Dawley, LEW and F344 rats
Conditions: cited from earlier work

For gentamicin, the “susceptibility to nephrotoxic effects” value (F344 compared with SD) is given as “more susceptible”, the “nephrotoxic effects (protein in the urine)” value (LEW strain) is given as “sensitive” and the “nephrotoxic effects (protein in the urine)” value (Sprague Dawley rats) is given as “resistant”.
